What was measured:
[1] = tested on: airway hyperreactivity (AHR); design: method as in ref 14 = [14]; settings: i.p. (6 mg/kg/day) and i.n. (3 mg/kg/day), mouse models of steroid-resistant and severe asthma; cited from earlier work
RSV A2 [2] = assay: Adsorption and penetration assay, RSV A2; format: cell-based, Human RSV; settings: A549 cells
HSV-1 Field [3] = tested on: HSV-1 Field
Canine Coronavirus [4] = assay: microbe, parasite or virus in culture; settings: Alphacoronavirus 1, CRFK, 24 h
HSV-1 KOS [5] = assay: Adsorption and penetration assay, HSV-1 KOS; format: cell-based; settings: HCLE cells
SARS-CoV-2 spike protein = tested on: SARS-CoV-2 spike protein; design: method as in ref 37 = [37]; settings: molecular docking and dynamics simulation; cited from earlier work
RSV A2 [6] = assay: Virus yield inhibition assay, RSV A2; format: cell-based; settings: human respiratory syncytial virus, moi 0.1, 24 h, virus yield by plaque assay
NF-κB signaling pathway = assay: NF-κB-LUC reporter gene assay in RSV A2-infected cells; format: cell-based; settings: Hep-2, A549, J774A.1 cells infected with RSV A2 moi 1, 6 h; A18 25 μg/mL, BAY 11-7085 10 mg/mL (so in the source)
SARS-CoV-2 [7] = assay: Adsorption and penetration assay, SARS-CoV-2; format: cell-based; settings: calu-3 cells
SARS-CoV-2 [8] = assay: microbe, parasite or virus in culture; settings: Severe acute respiratory syndrome coronavirus 2, Calu-3, 24 h
HSV-1 Field [9] = assay: microbe, parasite or virus in culture; settings: Human alphaherpesvirus 1, HCLE, 24 h
SARS-CoV-2 [10] = format: cell-based
RSV line 19 and A2 = assay: Pulmonary RSV infection in mouse model; format: in vivo, Balb/C mice
RSV A2 [11] = assay: RSV qRT-PCR assay (viral RNA synthesis); format: cell-based, Human RSV; settings: A549 and Hep-2 cells, A18 25 mg/mL (so in the source), 6 h, 15 h and 24 h p.i.
IL-6, IL-8, and TNF-α [12] = assay: Cytokine determination by ELISA in RSV A2-infected cells; format: cell-based; settings: RSV A2 moi 1, 24 h, A18 25 mg/mL, BAY 11-7085 10 mg/mL (so in the source); for IL-6 production vs RSV-infected control cells: Hep-2, A549, J774A.1 cells; for TNF-α production vs RSV-infected control cells: J774A.1 macrophages; for IL-8 production vs RSV-infected control cells: epithelial cells (Hep-2, A549)
HSV-1 KOS [13] = assay: microbe, parasite or virus in culture; settings: Human alphaherpesvirus 1, HCLE, 24 h
RSV Line 19 = assay: microbe, parasite or virus in culture; settings: human respiratory syncytial virus
IL-6, IL-8, and TNF-α [14] = assay: Cytokine determination by ELISA in TLR2/6 and TLR3 ligand-stimulated cells; format: cell-based; settings: A549, Hep-2, J774A.1; TLR2/6 and TLR3 ligands for 6 h / 8 h (Fig. S3); A18 25, BAY 11-7085 10
HSV-1 B2006 [15] = assay: microbe, parasite or virus in culture; settings: Human alphaherpesvirus 1, HCLE, 24 h
SARS-CoV-2 [16] = tested on: SARS-CoV-2
HSV-1 B2006 [17] = tested on: HSV-1 B2006
Canine Coronavirus [18] = tested on: Canine Coronavirus
in vitro = format: cell-based; settings: human (HEp-2, A549, HCLE, Calu-3); cat (CRFK)
[19] = tested on: IL-6, IL-4, IL-17A, IFN-γ; assay: Pulmonary cytokines qRT-PCR in RSV-infected mice; format: in vivo, Balb/C mice; settings: RSV-infected mice treated with A18, day 8 p.i.
RSV A2 [20] = assay: Immunofluorescence, RSV gF expression in infected cells; format: cell-based, Human RSV; settings: RSV A2 moi 1, 25 μg/mL of A18, 24 h p.i.
HSV-1 KOS [21] = tested on: HSV-1 KOS
[22] = tested on: SARS-CoV-2 viral main protease; design: method as in ref 36 = [36]; settings: in silico finding; compounds from E. purpurea; cited from earlier work

## Oc1cc(O)c2cc(O)c(-c3ccc(O)c(O)c3)[o+]c2c1 [A18, Cyanidin chloride]
[1]
  airway hyperreactivity (AHR): alleviated airway hyperreactivity (AHR)
RSV A2 [2]; RSV A2 moi 1, 25 μg/mL of A18, 1 h at 4 °C
  virus adsorption: virus yield after treatment during binding stage: significant reduction of viral plaque formation
RSV A2 [2]; RSV A2 moi 1, 25 μg/mL of A18, 2 h at 37 °C
  virus internalization: viral infectivity after treatment during internalization: did not reduce viral infectivity
HSV-1 Field [3]
  SI (ratio CC50/EC50): 26
Canine Coronavirus [4]
  EC50: 7.7 ± 0.1 µg/mL
HSV-1 KOS [5]; HSV-1 KOS moi 1, 25 μg/mL of A18, 1 h at 4 °C
  virus adsorption: virus yield after treatment during binding stage: significant reduction of viral plaque formation
HSV-1 KOS [5]; HSV-1 KOS moi 1, 25 μg/mL of A18, 2 h at 37 °C
  virus internalization: viral infectivity after treatment during internalization: did not reduce viral infectivity
SARS-CoV-2 spike protein
  predicted interaction with SARS-CoV-2 spike protein: interacts with spike protein
RSV A2 [6]; RSV A2 in A549 cells
  EC50: 8.5 ± 0.1 µg/mL
RSV A2 [6]; RSV A2 in HEp-2 cells
  EC50: 3 ± 0.06 µg/mL
NF-κB signaling pathway
  NF-κB activation (NF-κB-LUC luciferase activity): strongly inhibited
SARS-CoV-2 [7]; SARS-CoV-2 moi 1, 25 μg/mL of A18, 1 h at 4 °C
  virus adsorption: virus yield after treatment during binding stage: significant reduction of viral plaque formation
SARS-CoV-2 [7]; SARS-CoV-2 moi 1, 25 μg/mL of A18, 2 h at 37 °C
  virus internalization: viral infectivity after treatment during internalization: did not reduce viral infectivity
SARS-CoV-2 [8]
  EC50: 8.9 ± 0.09 µg/mL
HSV-1 Field [9]
  EC50: 7.6 ± 0.05 µg/mL
SARS-CoV-2 [10]
  infected and treated cells expressing Spike protein: 7%
RSV line 19 and A2; Balb/c mice, RSV A2 and line 19, A18 6 mg/kg i.p. or 3 mg/kg i.n. daily days 0-4, day 2 p.i. and entire course
  weight loss vs untreated infected controls: significantly less weight loss
RSV line 19 and A2; Balb/c mice, RSV A2 and line 19, A18 6 mg/kg i.p. or 3 mg/kg i.n. daily, day 4 p.i.
  RSV titers in the lung vs untreated animals: significantly lower
RSV line 19 and A2; RSV A2 and line 19 infected mice, H&E-stained lungs, day 8 p.i.
  lung histology, semiquantitative histological scoring (Inflammation Index): significantly reduced RSV-induced pathological damage
RSV A2 [11]
  relative contents of viral RNA vs untreated infected cells: significantly reduced
IL-6, IL-8, and TNF-α [12]
  IL-6 production vs RSV-infected control cells: significantly reduced
  TNF-α production vs RSV-infected control cells: significantly reduced
  IL-8 production vs RSV-infected control cells: significantly reduced
HSV-1 KOS [13]
  EC50: 5.5 ± 0.1 µg/mL
RSV Line 19; A549, 24 h
  EC50: 9.8 ± 0.08 µg/mL
RSV Line 19; HEp-2, 24 h
  EC50: 8 ± 0.1 µg/mL
IL-6, IL-8, and TNF-α [14]
  IL-6 production in TLR ligand-stimulated cells: significantly inhibited
  IL-8 production in TLR ligand-stimulated cells: significantly inhibited
  TNF-a production in TLR ligand-stimulated cells: significantly inhibited
HSV-1 B2006 [15]
  EC50: 4.6 ± 0.05 µg/mL
SARS-CoV-2 [16]
  SI (ratio CC50/EC50): 23
HSV-1 B2006 [17]
  SI (ratio CC50/EC50): 43
Canine Coronavirus [18]
  SI (ratio CC50/EC50): 26
In vitro
  CC50 at 24 h: > 200 µg/mL
[19]
  pulmonary IFN-g levels, treated vs not treated: did not observe statistical differences
  pulmonary IL-4 gene expression vs untreated infected animals: significantly lower levels
  pulmonary IL-6 gene expression vs untreated infected animals: significantly lower levels
  pulmonary IL-17A gene expression vs untreated infected animals: significantly lower levels
RSV A2 [20]; A549 cells, infected control 93%
  infected and treated cells expressing gF: 23%
RSV A2 [20]; HEp-2 cells, infected control 96%
  infected and treated cells expressing gF: 10%
HSV-1 KOS [21]
  SI (ratio CC50/EC50): 46

## CC(C)(C)c1ccc(S(=O)(=O)/C=C/C#N)cc1 [BAY 11-7085, reference compound]
NF-κB signaling pathway
  NF-κB activation (NF-κB-LUC luciferase activity): strongly inhibited
IL-6, IL-8, and TNF-α [12]
  IL-6 production vs RSV-infected control cells: significantly reduced
  TNF-α production vs RSV-infected control cells: significantly reduced
  IL-8 production vs RSV-infected control cells: significantly reduced
IL-6, IL-8, and TNF-α [14]
  IL-6 production in TLR ligand-stimulated cells: significantly inhibited
  IL-8 production in TLR ligand-stimulated cells: significantly inhibited
  TNF-a production in TLR ligand-stimulated cells: significantly inhibited

## O=C(O)CC(=O)OC[C@H]1O[C@@H](Oc2cc3c(O)cc(O)cc3[o+]c2-c2ccc(O)c(O)c2)[C@H](O)[C@@H](O)[C@@H]1O [Cyanidin 3-(6″-malonylglucoside)]
[22]
  inhibitory potential against SARS-CoV-2 via inhibition of viral main protease: good inhibitory potential

## OC[C@H]1O[C@@H](Oc2cc3c(O[C@@H]4O[C@H](CO)[C@@H](O)[C@H](O)[C@H]4O)cc(O)cc3[o+]c2-c2ccc(O)c(O)c2)[C@H](O)[C@@H](O)[C@@H]1O [Cyanin]
[22]
  inhibitory potential against SARS-CoV-2 via inhibition of viral main protease: good inhibitory potential
